Laboratory results: US20250368629A1, “FLAVONOID COMPOUNDS AND METHODS AND MATERIALS FOR USING FLAVONOID COMPOUNDS TO TREAT FIBROTIC CONDITIONS” (Mayo Foundation for Medical Education and Research, priority 2022, published 2025)

How the values were obtained:
[1] = system: senescent human adult lung fibroblasts; assay: Apoptosis of senescent lung fibroblasts (cleaved caspase-3, DAPI); format: cell-based; conditions: Fibroblast; replicatively senescent human adult lung fibroblasts, 96 hours, 6-point dose-response, N=3
Description: Human adult lung fibroblasts were replicatively passaged until senescence (confirmed by RNA and senescence associated beta galactosidase staining). In a parallel experiment, low passage proliferating fibroblasts from the same donor were compared. Cells were plated into 96-well plates and treated with the indicated compound (6-point dose-response) and incubated for 96 hours. Cells were then fixed using 4% PFA, permeabilized using 0.25% triton x-100, and nuclear stained using a primary antibody for cleaved caspase-3, secondary fluorescence conjugated antibody, and DAPI. Cells were then imaged using a 4× objective on a Cytation5 microscope and cell counts were quantified using automated software (Biotek Gen5). Data shown are the EC50 values calculated for each compounds efficacy to induce apoptosis in senescence vs. proliferating lung fibroblasts, from the calculated dose-response curves, N=3 independent experiments.

[2] = system: mice with intratracheal bleomycin injury; assay: Acute exposure bleomycin dose-finding study; format: in vivo, mouse
Description: On day 1 mice received intratracheal sham or bleomycin injury. On day 7 mice were divided into groups and treated daily with vehicle, 10, 30, or 100 mg/kg F-4N by oral gavage for 7 days. On day 14 organs and plasma were collected. Weight changes were measured throughout the experiment (FIG. 24B). Whole lung RNA expression of profibrotic genes as also examined (FIG. 24C). […] F-4N efficacy biomarkers were identified. RNA was collected from vehicle treated mice and from mice treated with 30 mg/kg F-4N. RNA was analyzed using the RT2 Profiler PCR array (Qiagen Catalog No.—330231) which measures expression of 89 different cytokines and chemokines. […] A level of genes whose expression is altered in response to F-4N can be used as a biomarker for F-4N efficacy.

[3] = system: Mdr2-/- mice; assay: Mdr2-/- mouse model of PSC with established liver fibrosis, i.p. treatment; format: in vivo; conditions: 10 mg/kg/daily i.p. for 14 days
Description: FIG. 6. Biochemical and histological examination of fibrosis in Mdr2^−/− mice treated with vehicle or F-4N. Mdr2^−/− mice (18-20 weeks old) with established liver fibrosis were treated with F-4N (10 mg/kg/daily i.p. n=10) or vehicle (i.p. n=10) for 14 days, then sacrificed the next day. Liver tissue and serum were collected for analysis. Left panel. […] Right panels.
Hydroxyproline content was measured using a hydroxyproline assay kit (Biovision) according to the manufacturer's instructions with slight modification. The liver tissues were weighed, homogenized in sterile water (10 mg of tissue per 100 μL H2O) and hydrolyzed in 12 M HCl in a pressure-tight, Teflon capped vial at 120° C. for 3 hours followed by filtration through a 45 μm Spin-X Centrifuge Tube filter (Corning). Ten μL of the hydrolyzed samples was dried in a Speed-Vac for 2 hours, followed by incubation with 100 μL of Chloramine T reagent for 5 minutes at room temperature and 100 μL of 4-(dimethylamino)benzaldehyde (DMAB) for 90 minutes at 60° C. The absorbance of oxidized hydroxyproline was determined at 560 nm. Hydroxyproline concentrations were calculated from a standard curve generated using known concentrations of trans-4-hydroxyl-L-proline. The total amount of protein isolated from the weighed tissues was determined by using a protein assay kit (Bio-Rad, absorbance at 595 nm). The amount of collagen was expressed in μg/mg total protein.
The slides were then stained with a solution containing 0.1% picrosirius red (Direct Red 80) and 0.1% fast green (counterstain) in saturated aqueous solution of picric acid, for 60 minutes at room temperature, followed by one wash in distilled water, de-hydration in 3 changes of 100% EtOH, clear in xylene and mount in resinous medium.
Serum alanine aminotransferase (ALT), alkaline phosphatase (ALP) and total bile acids were measured using a commercially available veterinary chemistry analyzer (VetScan 2, Abaxis).
RNA isolation using RNeasy Plus Mini Kit (Qiagen) according to the manufacturer's instructions. Isolated RNA (250 ng) was then used to synthesize cDNA using SuperScript VILO (Invitrogen). Quantitative PCR was performed using FastStart Essential DNA Green Master (Roche) and analyzed using a LightCycler 96 (Roche). Data are expressed as a fold change by ΔΔCt relative to glyceraldehyde-3-phosphate dehydrogenase (GAPDH).

[4] = system: mouse model of NASH; assay: Mouse model of NASH (CD-HFD); format: in vivo; conditions: 10 mg/kg daily i.p. for 2 weeks
Description: FIGS. 20A-20D show the efficacy of F-4N in a mouse model of NASH. FIG. 20A) Study design and weight changes of mice treated with 10 mg/kg F-4N daily i.p. for 2 weeks. FIG. 20B). Representative H&E and Sirius Red liver histology. FIG. 20C) Objective automated quantification of Sirius Red staining. FIG. 20D) Liver weight and colon weight changes. N=5 chow diet, N=10 holine deficient-high fat diet (CD-HFD) vehicle, N=10 CD-HFD+F-4N.
Mice in a mouse model of NASH were treated with 10 mg/kg F-4N daily i.p. for 2 weeks (FIG. 20A). Livers from treated mice were analyzed by H&E and Sirius Red staining (FIG. 20B). Sirius Red staining was quantified (FIG. 20C). Liver weight and colon weight changes were also assessed (FIG. 20D).

[5] = system: Human adult lung fibroblasts (passage 3); assay: Fibroblast activation (TGFβ, alpha-smooth muscle actin); format: cell-based; conditions: Homo sapiens, Fibroblast; +2 ng/mL TGFβ, 96 hours, alpha-smooth muscle actin intensity
Description: Human adult lung fibroblasts (passage 3) were plated into 96-well plates and treated with the indicated compound (6-point dose-response) +2 ng/mL TGFβ to stimulated fibroblast activation. Cells were incubated for 96 hours, fixed using 4% PFA, permeabilized using 0.25% triton x-100, and stained using a primary antibody recognizing alpha-smooth muscle actin and a secondary fluorescent conjugated antibody, and DAPI. Cells were then imaged using a 4× objective on a Cytation5 microscope and alpha-smooth muscle actin intensity was quantified using automated software (Biotek Gen5). Data shown are the IC50 values for each compounds efficacy at reducing expression of alpha-smooth muscle actin, calculated from the calculated dose-response curves, N=3 independent.

[6] = Stability in human plasma; format: in vitro ADME
Description: The stability of F-4N in plasma was assessed (FIG. 27). Compounds were incubated with human or mouse plasma. The percent of F-4N recovered was analyzed by LC-MS. Warfarin was used as a control for stable compound, and propantheline was used as a control for an unstable compound. Analysis was performed by Cyprotex (Framingham, MA).

[7] = 30 and 100 mg/kg daily oral gavage, 7 days

For `O=c1c(O)c(-c2ccc(OCc3ccncc3)cc2)oc2ccccc12` [F—4N], which EC50 [1] is on record?
The EC50 was 0.8 µM.

And the “number of genes with reduced expression (RT2 Profiler PCR array of 89 cytokines and chemokines)” value ([2]; 30 mg/kg, after 7 days of treatment)?
Its value is 11 genes.

And the weight change [2, 7]?
The weight change was “improved weight change”.

What about the “whole lung RNA expression of profibrotic genes” value [2, 7] of the same compound?
Its value is “reduced expression”.

What about the “reduction of liver collagen content (hydroxyproline assay) compared to vehicle control” value [3] of the same compound?
Its value is roughly 40%.

And the “Liver function tests: ALT, ALP and serum bile acid values” ([3]; compared to vehicle)?
Its value is “significantly reduced”.

And the “RT-PCR of whole liver RNA: Col1a1, Il6, Ccl2, Cdkn1a, Cdkn2a” value ([3]; compared to vehicle)?
The value was “significantly reduced”.

And the “Picrosirius red staining of liver collagen fibers” value ([3]; particularly portal-to-portal areas)?
The value was “reduction of collagen fibers”.

And the “efficacy in NASH model (histology, Sirius Red, liver weight, liver function, triglyceride, hydroxyproline)” value [4]?
Its value is “effective to treat NASH”.

What about the “liver expression of profibrotic genes, inflammatory genes, and Stk17b (qPCR)” value [4] of the same compound?
Its value is “effectively reduced expression”.

And the EC50 [5]?
The EC50 was 1.8 µM.

And the “stability in plasma (percent recovered, LC-MS)” value [6]?
Its value is “stable”.
